Holding throughout (test): AK assay 384-well format, Prestwick library screening
The test system of test [1] is E. faecium. The test is classed as cell-based, Enterococcus faecium. To be noted: for fold induction at 50 µM: Enterococcus faecium, 3 h.
In test [2] the test system is S. aureus strain USA300-0114. The test is classed as cell-based, Staphylococcus aureus. The conditions noted are these: for fold induction at 50 µM: Staphylococcus aureus, USA300, 3 h.
The subject of test [3] is K. pneumoniae. The test is classed as cell-based, Klebsiella pneumoniae. To be noted: for fold induction at 50 µM: Klebsiella pneumoniae, 3 h.
The subject of test [4] is A. baumannii strain 98-37-09. It is filed as cell-based, Acinetobacter baumannii. The conditions noted are these: for fold induction at 50 µM: Acinetobacter baumannii, 983709, 3 h.
The test system of test [5] is P. aeruginosa. The test is classed as cell-based, Pseudomonas aeruginosa. The conditions noted are these: for fold induction at 50 µM: Pseudomonas aeruginosa, 3 h.
Test [6] relates to E. cloacae. It is filed as cell-based, Enterobacter cloacae. The conditions noted are these: for fold induction at 50 µM: Enterobacter cloacae, 3 h.
Test [7] has as its system E. coli. The test is classed as cell-based, Escherichia coli. The conditions noted are these: for fold induction at 50 µM: Escherichia coli, 3 h.
Setting [8] is: read-out: AK-based Prestwick Library Screening Results, E. faecium (increase in extracellular AK activity).
The mark [9] stands for this setting: read-out: AK-based Prestwick Library Screening Results, S. aureus (increase in extracellular AK activity).
Where [10] appears, read: read-out: AK-based Prestwick Library Screening Results, K. pneumoniae (increase in extracellular AK activity).
[11] abbreviates: read-out: AK-based Prestwick Library Screening Results, A. baumannii (increase in extracellular AK activity).
[12] abbreviates: read-out: AK-based Prestwick Library Screening Results, P. aeruginosa (increase in extracellular AK activity).
The mark [13] stands for this setting: read-out: AK-based Prestwick Library Screening Results, E. cloacae (increase in extracellular AK activity).
[14] abbreviates: read-out: AK-based Prestwick Library Screening Results, E. coli (increase in extracellular AK activity).
Setting [15] is: 50 μM final drug concentration, […].
Setting [16] is: 50 μM final drug concentration, 384-well format, cutoff for positive-scoring molecules 3-fold increase, read-out: AK-based Prestwick Library Screening Results, E. faecium (increase in extracellular AK activity).
[17] abbreviates: 50 μM final drug concentration, 384-well format, cutoff for positive-scoring molecules 3-fold increase, read-out: AK-based Prestwick Library Screening Results, S. aureus (increase in extracellular AK activity).
[18] abbreviates: 50 μM final drug concentration, 384-well format, cutoff for positive-scoring molecules 3-fold increase, read-out: AK-based Prestwick Library Screening Results, K. pneumoniae (increase in extracellular AK activity).
Setting [19] is: 50 μM final drug concentration, 384-well format, cutoff for positive-scoring molecules 3-fold increase, read-out: AK-based Prestwick Library Screening Results, A. baumannii (increase in extracellular AK activity).
Setting [20] is: 50 μM final drug concentration, 384-well format, cutoff for positive-scoring molecules 3-fold increase, read-out: AK-based Prestwick Library Screening Results, P. aeruginosa (increase in extracellular AK activity).
The mark [21] stands for this setting: 50 μM final drug concentration, 384-well format, cutoff for positive-scoring molecules 3-fold increase, read-out: AK-based Prestwick Library Screening Results, E. cloacae (increase in extracellular AK activity).
Where [22] appears, read: 50 μM final drug concentration, 384-well format, cutoff for positive-scoring molecules 3-fold increase, read-out: AK-based Prestwick Library Screening Results, E. coli (increase in extracellular AK activity).
[23] abbreviates: 50 μM final drug concentration, planktonic, cutoff for positive 3-fold increase, read-out: AK-based Prestwick Library Screening Results, E. faecium (fold increase in extracellular AK activity).
The mark [24] stands for this setting: 50 μM final drug concentration, planktonic, cutoff for positive 3-fold increase, read-out: AK-based Prestwick Library Screening Results, S. aureus (fold increase in extracellular AK activity).
The mark [25] stands for this setting: 50 μM final drug concentration, planktonic, cutoff for positive 3-fold increase, read-out: AK-based Prestwick Library Screening Results, K. pneumoniae (fold increase in extracellular AK activity).
[26] abbreviates: 50 μM final drug concentration, planktonic, cutoff for positive 3-fold increase, read-out: AK-based Prestwick Library Screening Results, A. baumannii (fold increase in extracellular AK activity).
[27] abbreviates: 50 μM final drug concentration, planktonic, cutoff for positive 3-fold increase, read-out: AK-based Prestwick Library Screening Results, P. aeruginosa (fold increase in extracellular AK activity).
Setting [28] is: 50 μM final drug concentration, planktonic, cutoff for positive 3-fold increase, read-out: AK-based Prestwick Library Screening Results, E. cloacae (fold increase in extracellular AK activity).
Where [29] appears, read: 50 μM final drug concentration, planktonic, cutoff for positive 3-fold increase, read-out: AK-based Prestwick Library Screening Results, E. coli (fold increase in extracellular AK activity).

The structures appear in SMILES notation. Counter-ions that a name gives are not always drawn. Like-named read-outs stand apart in the source and are kept apart here.

Take `Oc1ccc2c3c1O[C@H]1[C@@H](O)CC[C@@]4(O)[C@@H](C2)N(CC2CCC2)CC[C@]314` [Nalbuphine hydrochloride]: the fold induction at 50 µM was found to be 0.9 in test [1] (setting [8]); 0.7 in test [2] (setting [9]); 0.7 in test [3] (setting [10]); 0.9 in test [4] (setting [11]); 0.8 in test [5] (setting [12]); 1.2 in test [6] (setting [13]). In addition, in test [7] (setting [14]), the fold induction at 50 µM turned out to be 0.9.
Turning to `C=CCN1CC[C@]23c4c5ccc(O)c4O[C@H]2C(=O)CC[C@@]3(O)[C@H]1C5` [Naloxone hydrochloride], the fold induction at 50 µM in test [1] (setting [8]) was 0.8; in test [2] (setting [9]) it was 0.7; in test [3] (setting [10]), 0.6; in test [4] (setting [11]), 0.8; in test [5] (setting [12]), 0.8; in test [6] (setting [13]) it was 1.1. Also, the fold induction at 50 µM in test [7] (setting [14]) stood at 0.9.
`C[C@]12CC[C@H]3[C@@H](CCC4=CC(=O)CC[C@@H]43)[C@@H]1CC[C@@H]2O` [Nandrolone]: the fold induction at 50 µM in test [1] (planktonic E. faecium, 50 μM final drug concentration, […], read-out: AK-based Prestwick library screening result, E. faecium (fold increase in extracellular AK activity)) came out at 1; in test [2] (planktonic S. aureus, 50 μM final drug concentration, […], read-out: AK-based Prestwick library screening result, S. aureus (fold increase in extracellular AK activity)), 0.7; in test [3] (planktonic K. pneumoniae, 50 μM final drug concentration, […], read-out: AK-based Prestwick library screening result, K. pneumoniae (fold increase in extracellular AK activity)), 0.7; in test [4] (planktonic A. baumannii, 50 μM final drug concentration, […], read-out: AK-based Prestwick library screening result, A. baumannii (fold increase in extracellular AK activity)) it was 0.8; in test [5] (planktonic P. aeruginosa, 50 μM final drug concentration, […], read-out: AK-based Prestwick library screening result, P. aeruginosa (fold increase in extracellular AK activity)), 0.9; in test [6] (planktonic E. cloacae, 50 μM final drug concentration, […], read-out: AK-based Prestwick library screening result, E. cloacae (fold increase in extracellular AK activity)), 1. In addition, the fold induction at 50 µM in test [7] (planktonic E. coli, 50 μM final drug concentration, […], read-out: AK-based Prestwick library screening result, E. coli (fold increase in extracellular AK activity)) stood at 0.9.
As for `C=C1[C@H]2C[C@@]3([C@@H]1O)[C@@H](C[C@@H]2O)[C@]12[C@@H]4C[C@H]3[C@H]1N(CC)C[C@]4(C)CC[C@@H]2O` [Napelline], the “AK-based Prestwick Library Screening Results, E. faecium (fold increase in extracellular AK activity)” value in test [1] (setting [15]) came to 1.0. Also, in test [2] (setting [15]), the “AK-based Prestwick Library Screening Results, S. aureus (fold increase in extracellular AK activity)” value was 1.4. The “AK-based Prestwick Library Screening Results, K. pneumoniae (fold increase in extracellular AK activity)” value in test [3] (setting [15]) is given as 1.0. Moreover, in test [4] (setting [15]), the “AK-based Prestwick Library Screening Results, A. baumannii (fold increase in extracellular AK activity)” value is reported as 1.0. Further, the “AK-based Prestwick Library Screening Results, P. aeruginosa (fold increase in extracellular AK activity)” value in test [5] (setting [15]) is given as 1.1. In addition, in test [6] (setting [15]), the “AK-based Prestwick Library Screening Results, E. cloacae (fold increase in extracellular AK activity)” value worked out at 3.6. Besides, the “AK-based Prestwick Library Screening Results, E. coli (fold increase in extracellular AK activity)” value in test [7] (setting [15]) is listed as 1.3.
For the molecule `c1ccc2c(CC3=NCCN3)cccc2c1` [Naphazoline hydrochloride], the fold induction at 50 µM was 1.1 in test [1] (setting [16]); 1 in test [2] (setting [17]); 0.8 in test [3] (setting [18]); 1.1 in test [4] (setting [19]); 1 in test [5] (setting [20]); 1.5 in test [6] (setting [21]). In test [7] (setting [22]), the fold induction at 50 µM turned out to be 1.3.
Consider `COc1ccc2cc([C@H](C)C(=O)O)ccc2c1` [Naproxen], for which the fold induction at 50 µM is 1 in test [1] (setting [16]); 0.8 in test [2] (setting [17]); 0.9 in test [3] (setting [18]); 1.1 in test [4] (setting [19]); 1 in test [5] (setting [20]); 1.4 in test [6] (setting [21]). The fold induction at 50 µM in test [7] (setting [22]) was 1.2.
As for `O=C1C[C@@H](c2ccc(O)cc2)Oc2cc(O)cc(O)c21` [Naringenine], the fold induction at 50 µM worked out at 0.9 in test [1] (setting [23]); 0.5 in test [2] (setting [24]); 0.9 in test [3] (setting [25]); 1.2 in test [4] (setting [26]); 1 in test [5] (setting [27]); 1.5 in test [6] (setting [28]). Also, the fold induction at 50 µM in test [7] (setting [29]) came out at 1.1.
As for `C[C@@H]1O[C@@H](O[C@H]2[C@H](Oc3cc(O)c4c(c3)O[C@H](c3ccc(O)cc3)CC4=O)O[C@H](CO)[C@@H](O)[C@@H]2O)[C@H](O)[C@H](O)[C@H]1O` [Naringin hydrate], the fold induction at 50 µM was 1 in test [1] (setting [23]); 1.2 in test [2] (setting [24]); 0.9 in test [3] (setting [25]); 1.2 in test [4] (setting [26]); 1.3 in test [5] (setting [27]); 1.2 in test [6] (setting [28]). The fold induction at 50 µM in test [7] (setting [29]) was found to be 1.3.
Take `CN1CCOC(c2ccccc2)c2ccccc2C1` (stereo not drawn) [Nefopam hydrochloride]: the fold induction at 50 µM was determined as 1 in test [1] (planktonic E. faecium, 50 μM final drug concentration, 384-well, cutoff for positive-scoring molecules 3-fold increase, read-out: AK-based Prestwick Library Screening Results: E. faecium (increase in extracellular AK activity)); 1.1 in test [2] (planktonic S. aureus, 50 μM final drug concentration, 384-well, cutoff for positive-scoring molecules 3-fold increase, read-out: AK-based Prestwick Library Screening Results: S. aureus (increase in extracellular AK activity)); 0.9 in test [3] (planktonic K. pneumoniae, 50 μM final drug concentration, 384-well, cutoff for positive-scoring molecules 3-fold increase, read-out: AK-based Prestwick Library Screening Results: K. pneumoniae (increase in extracellular AK activity)); 1.4 in test [4] (planktonic A. baumannii, 50 μM final drug concentration, 384-well, cutoff for positive-scoring molecules 3-fold increase, read-out: AK-based Prestwick Library Screening Results: A. baumannii (increase in extracellular AK activity)); 1.2 in test [5] (planktonic P. aeruginosa, 50 μM final drug concentration, 384-well, cutoff for positive-scoring molecules 3-fold increase, read-out: AK-based Prestwick Library Screening Results: P. aeruginosa (increase in extracellular AK activity)); 1.4 in test [6] (planktonic E. cloacae, 50 μM final drug concentration, 384-well, cutoff for positive-scoring molecules 3-fold increase, read-out: AK-based Prestwick Library Screening Results: E. cloacae (increase in extracellular AK activity)). Besides, the fold induction at 50 µM in test [7] (planktonic E. coli, 50 μM final drug concentration, 384-well, cutoff for positive-scoring molecules 3-fold increase, read-out: AK-based Prestwick Library Screening Results: E. coli (increase in extracellular AK activity)) amounted to 1.2.
